The target of the assay is T1, Substance P (Cavia porcellus, UniProt P30547).
T1 construct: Strips of longitudinal muscle (derived from terminal ileum of adult male guinea pigs); from tissue; host or cells: longitudinal muscle strips of terminal ileum, adult male guinea pigs (Charles River)
Description: Guinea pig ileum test for Substance P antagonist effect. The following applies: isolated guinea pig ileum longitudinal muscle strips; Schild plot analysis; 5-10 min contact time; footnote a = limited data due to solubility, b = slope significantly different from -1; read-out: Substance P Antagonist pA2 (converted). The class given is cell-based. The procedure: As stated above the azole-fused peptides of Formula I are useful as Substance P antagonists and analgesics or as synthetic intermediates therefor.
Strips of longitudinal muscle (derived from terminal ileum of adult male guinea pigs (Charles River, 400-600 g.) are mounted in 5-ml. organ baths containing oxygenated Krebs solution containing l μM each of atropine and pyrilamine maintained at 30°-33° C. and connected to isometric transducers. Following tissue equilibration and repeated washing (45-60 min.), SP or an appropriate reference agonist is added cumulatively to the bath and contractions of the tissue are recorded. The bath is washed thoroughly and 30-45 min. is allowed to elapse before construction of a second reference agonist curve to assure reproducibility of the responses. Test compounds are similarly evaluated for agonist activity up to a maximum concentration of 10-100 μM. Regression analysis of the linear portion of the log concentration-percent maximal response curves provides the EC50 (and 95% confidence limits), the standard measure of agonist potency. When appropriate, relative molar potency ratios are calculated (EC50 reference/ED50 test drug). Antagonist activity is examined by pretreating thoroughly washed tissues with test compound (using a standard 5-10 min. contact time), then constructing a cumulative dose-response curve to the reference agonist. The effects of several concentrations of test antagonist, pooled across separate experiments, provide dose-ratio (EC50 shift) data for a standard Schild plot analysis, with computation of the pA2.

Molecules are shown by their SMILES. Residues, ends and D or L forms follow the SMILES beside them.

T1 sequence (P30547 whole entry): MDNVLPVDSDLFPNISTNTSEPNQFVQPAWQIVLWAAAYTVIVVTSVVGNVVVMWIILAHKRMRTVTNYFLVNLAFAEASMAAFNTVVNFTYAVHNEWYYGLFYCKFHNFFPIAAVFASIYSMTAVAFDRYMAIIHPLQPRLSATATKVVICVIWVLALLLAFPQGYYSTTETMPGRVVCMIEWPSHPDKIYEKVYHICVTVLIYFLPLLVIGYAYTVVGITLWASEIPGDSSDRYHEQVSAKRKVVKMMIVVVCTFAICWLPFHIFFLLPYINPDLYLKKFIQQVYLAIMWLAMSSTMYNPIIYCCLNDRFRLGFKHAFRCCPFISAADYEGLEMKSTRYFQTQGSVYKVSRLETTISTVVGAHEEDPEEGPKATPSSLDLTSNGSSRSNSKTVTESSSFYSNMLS

For `CC(C)C[C@H](NC(=O)[C@@H](Cc1c[nH]c2ccccc12)NC(=O)c1nc([C@@H](Cc2c[nH]c3ccccc23)NC(=O)[C@@H]2CCCN2)sc1-c1ccccc1)C(=O)O` [Example 19], the Kb was above 10000 nM.

On to `CC(C)C[C@H](NC(=O)[C@@H](Cc1c[nH]c2ccccc12)NC(=O)c1nc([C@@H](Cc2c[nH]c3ccccc23)NC(=O)[C@@H]2CCCN2)sc1-c1ccccc1)C(=O)N[C@@H](Cc1ccccc1)C(N)=O` [Example 3], for which the Kb was 50.1 nM.

`CC(C)C[C@H](NC(=O)c1nc([C@H](Cc2ccccc2)NC(=O)[C@@H](Cc2c[nH]c3ccccc23)NC(=O)[C@@H]2CCCN2)[nH]c1-c1c[nH]c2ccccc12)C(=O)N[C@@H](Cc1ccccc1)C(N)=O` [Example 10]: the Kb is 1260 nM.

`CC(C)C[C@H](NC(=O)[C@@H](Cc1c[nH]c2ccccc12)NC(=O)c1nc([C@@H](Cc2c[nH]c3ccccc23)NC(=O)[C@@H]2CCCN2)sc1-c1ccccc1)C(=O)N[C@@H](Cc1ccccc1)C(=O)O` [Example 18]: the Kb was 316 nM. For `CC(C)c1sc([C@@H](Cc2c[nH]c3ccccc23)NC(=O)[C@H](Cc2ccccc2)NC(=O)[C@@H](Cc2c[nH]c3ccccc23)NC(=O)[C@@H]2CCCN2)nc1C(=O)N[C@@H](Cc1ccccc1)C(N)=O` [Example 4] (HELM PEPTIDE1{P.[dW].F.[CC(C)c1sc([C@@H](Cc2c[nH]c3ccccc23)N[*:1])nc1C(=O)[*:2]].F.[am]}$$$$V2.0) the value was 501 nM. For the molecule `CC(C)c1sc([C@@H](Cc2c[nH]c3ccccc23)NC(=O)[C@H](Cc2ccccc2)NC(=O)[C@@H](Cc2c[nH]c3ccccc23)NC(=O)[C@@H]2CCCN2)nc1CN(C)CCc1ccccc1` [Example 27], the Kb was at least 10000 nM.

As for `CC(C)C[C@H](NC(=O)[C@@H](Cc1c[nH]c2ccccc12)NC(=O)c1nc([C@H](Cc2c[nH]c3ccccc23)NC(=O)[C@@H]2CCCN2)sc1-c1ccccc1)C(=O)N[C@@H](Cc1ccccc1)C(N)=O` [Example 2], the Kb was 126 nM.

Take `CC(C)C[C@H](NC(=O)[C@@H](Cc1c[nH]c2ccccc12)NC(=O)c1nc([C@H](N)Cc2c[nH]c3ccccc23)sc1-c1ccccc1)C(=O)O` [Example 20]: the Kb was above 10000 nM.

Turning to `CC(C)C[C@H](NC(=O)[C@@H](Cc1c[nH]c2ccccc12)NC(=O)c1nc([C@@H](Cc2c[nH]c3ccccc23)NC(=O)[C@@H]2CCCN2)[nH]c1-c1ccccc1)C(=O)N[C@@H](Cc1ccccc1)C(N)=O` [Example 16], the Kb was 200 nM.

As for `CC(C)C[C@H](NC(=O)[C@@H](Cc1c[nH]c2ccccc12)NC(=O)c1nc(C2Cc3c([nH]c4ccccc34)CN2)sc1-c1ccccc1)C(=O)N[C@@H](Cc1ccccc1)C(N)=O` (single isomer, unassigned) [Example 7], the Kb is above 10000 nM. For `CC(C)C[C@H](NC(=O)[C@@H](Cc1c[nH]c2ccccc12)NC(=O)[C@H](Cc1ccccc1)NC(=O)[C@@H](Cc1c[nH]c2ccccc12)NC(=O)[C@@H]1CCCN1)c1ncc(-c2ccccc2)[nH]1` [Example 17] (HELM PEPTIDE1{P.[dW].F.[dW].[CC(C)C[C@H](N[*:1])c1ncc(-c2ccccc2)[nH]1]}$$$$V2.0) the value was 501 nM. Regarding `CC(C)C[C@H](NC(=O)[C@@H](Cc1c[nH]c2ccccc12)NC(=O)c1nc(C2Cc3c([nH]c4ccccc34)CN2)sc1-c1ccccc1)C(=O)N[C@@H](Cc1ccccc1)C(N)=O` (single isomer, unassigned) [Example 8], the Kb was 7940 nM. In the case of `CC(C)c1sc([C@@H](Cc2c[nH]c3ccccc23)NC(=O)c2nc([C@@H](Cc3c[nH]c4ccccc34)NC(=O)[C@@H]3CCCN3)sc2-c2ccccc2)nc1C(=O)NC[C@@H](N)Cc1ccccc1` [Example 21], the Kb is above 10000 nM.

Consider `CC(C)C[C@H](NC(=O)c1nc([C@H](Cc2ccccc2)NC(=O)[C@@H](Cc2c[nH]c3ccccc23)NC(=O)[C@@H]2CCCN2)sc1-c1c[nH]c2ccccc12)C(=O)N[C@@H](Cc1ccccc1)C(N)=O` [Example 6], for which the Kb is 1260 nM. Take `CC(C)C[C@H](NC(=O)c1nc([C@H](Cc2ccccc2)NC(=O)[C@@H](Cc2c[nH]c3ccccc23)NC(=O)[C@@H]2CCCN2)oc1-c1c[nH]c2ccccc12)C(=O)N[C@@H](Cc1ccccc1)C(N)=O` [Example 9]: the Kb is 5010 nM.

For the molecule `CC(C)c1sc([C@H](Cc2c[nH]c3ccccc23)NC(=O)[C@H](Cc2ccccc2)NC(=O)[C@@H](Cc2c[nH]c3ccccc23)NC(=O)[C@@H]2CCCN2)nc1C(=O)N[C@@H](Cc1ccccc1)C(N)=O` [Example 5] (HELM PEPTIDE1{P.[dW].F.[CC(C)c1sc([C@H](Cc2c[nH]c3ccccc23)N[*:1])nc1C(=O)[*:2]].F.[am]}$$$$V2.0), the Kb was 126 nM. For `CC(C)C[C@H](NC(=O)[C@@H](Cc1c[nH]c2ccccc12)NC(=O)c1nc([C@@H](Cc2c[nH]c3ccccc23)NC(=O)[C@@H]2CCCN2)sc1-c1ccccc1)C(=O)N(C)C(Cc1ccccc1)C(N)=O` (stereo partly drawn) [Example 22] the value was 79.4 nM; for `CN(C)CCNC(=O)[C@@H](Cc1c[nH]c2ccccc12)NC(=O)c1nc(C(Cc2c[nH]c3ccccc23)NC(=O)[C@@H]2CCCN2)sc1-c1ccccc1` (single isomer, unassigned) [Example 11], 7940 nM.

With `CC(C)C[C@H](NC(=O)[C@@H](Cc1c[nH]c2ccccc12)NC(=O)c1nc([C@@H](Cc2c[nH]c3ccccc23)NC(=O)[C@@H]2CCCN2)oc1-c1ccccc1)C(=O)N[C@@H](Cc1ccccc1)C(N)=O` [Example 24], the Kb was 631 nM. For `CC(C)c1sc([C@@H](Cc2c[nH]c3ccccc23)NC(=O)[C@H](Cc2ccccc2)NC(=O)[C@@H](Cc2c[nH]c3ccccc23)NC(=O)[C@@H]2CCCN2)nc1C(=O)NC[C@@H](N)Cc1ccccc1` [Example 25] the value was 794 nM. Regarding `CN(C)CCNC(=O)[C@@H](Cc1c[nH]c2ccccc12)NC(=O)c1nc(C(Cc2c[nH]c3ccccc23)NC(=O)[C@@H]2CCCN2)sc1-c1ccccc1` (single isomer, unassigned) [Example 12], the Kb is 5010 nM.
